“Also recorded” adds a separate entry of the source.
Experiments:
[1] = Removal of thymidine analogues from circulation (S phase labelling window after injection); conditions: mouse, in vivo
Protocol: These two molecules become stably incorporated into DNA during DNA replication (S phase). When either is injected into mice, it labels at high levels only those tissue cells actively replicating DNA (in S phase) at that time. Because these drugs are both rapidly removed from circulation, only cells actively replicating DNA within 1 hour of injection are labelled. If the second drug is introduced into the same animal at a later time, thereafter, it too will label only those cells in S phase at the time of the second injection. The tissues are then collected and stained for BRDU and EDU with separate fluorescence tags. The intensity of each marker is then determined by fluorescent image analysis. Fortunately, it is the characteristic of dividing cells that these two labels are incorporated most efficiently into nuclei of cells near the middle of S phase. When the two injections are separated by the length of the cell cycle, therefore, both markers will be stained at maximal levels in the same cell. The cell cycle characteristics of a tissue can then be determined by comparing results following injections separated by increasing lengths of time.

[2] = Protocol: Extensive studies were conducted to determine the optimal spacing between injections for C57Bl/6 mice, as differences between mouse strains might exist. […] After the 9 injections spaced apart by these times were complete, the animals were weighed over the next 10 days to determine their overall health. […]
[3] = test system: Lewis lung carcinoma; assay: Lewis lung carcinoma tumor growth in C57Bl/6 mice; assay type: in vivo, mouse; conditions: for inhibition of Lewis lung carcinoma tumor growth: Cell Cycle Therapy, IP injections every 10 hours 40 min with rest periods
Protocol: The Lewis Lung Carcinoma model is a commonly used tumor model for assessment of general anti-tumor activity. The cells can be grown in culture and then introduced underneath the skin on the back of syngeneic […] mice. When 1-2 million cells are introduced, tumors begin to form within 6-10 days. This is an extremely aggressive tumor, with doubling times of 3 days or less. […] In this study 2 million cells were injected underneath the skin on the mid back of the mice. The tumor was measured with calipers to determine its size. To confirm size measurements, the tumor was excised in total and weighed at the end of the experiment. All anti-tumor drug injections were intraperitoneal (IP). Mice in the range of 8-16 weeks of age were utilized, but within a given experiment, mice within the same age range were generally used for comparison. All studies were conducted under standard guidelines, and conformed to the protocol approved the Case Western Reserve and the Northeast Ohio Medical University IACUC. Weight loss was measured to determine animal health, with loss of over 20% an indication for experimental termination. Similarly, tumors were not allowed to grow beyond 15% of body weight.
The ability of a treatment regimen to block tumor growth was determined with injections of topotecan, either alone or in combination with EDU. […] In this case, the increase of tumor size was measured. […] In general, EDU injections of 0.2 ml of 9 mg/ml drug (in phosphate buffered saline) were performed. These injections involved intermittent rest periods, generally 1-2 rest periods between 4-5 EDU injections. To increase the effectiveness of EDU injections, two such injections were at times performed within a 20 min period every 10 hours 40 min.
When higher volumes were injected (0.23 ml) the rest times were increased. […] With 0.2 ml injections of topotecan ([…]), three injections were often followed by 4-5 rest periods (FIGS. 12 and 13A-C).
EDU was always injected at 9 mg/ml (0.2 ml per injection). 1-3 such injections were followed immediately, or after 1-5 rest periods, by 1-4 injections of topotecan (0.18 ml, 0.2 mg/ml).
The experiment involved 24 C57Bl/6 mice, each of which received injections of 2 million Lewis lung carcinoma cells under the skin on their backs. Three days later these animals were randomly divided into three groups. The first group received three injections of topotecan separated by the length of the cell cycle (10 hours 40 min). The three-injection set was then followed by a long rest period precisely equal to 5 cell cycle lengths; and the process was repeated (FIG. 14C). For comparison, another set of mice received a single injection at the same time each day. […] All topotecan injections were identical (0.2 ml of 0.18 mg/ml topotecan). As a control, 8 mice received 0.2 ml injections of phosphate buffered saline (PBS) at the same time as the cell cycle group. […]

[4] = test system: mouse gut crypt cells; assay: Cell cycle synchrony of gut crypt cells after repeated injections (EDU/BRDU incorporation, cyclin D1 staining); conditions: for ability to induce cell cycle synchrony in the mouse gut: EDU: high concentrations; for cell cycle synchrony of gut cells: four 10-hour injections separated by 40 hours without injection, repeated four times
Protocol: All experiments were performed according to separate protocols approved by IACUC committees at the following institutions: the Northeast Ohio Medical University, and Case Western Reserve University. Studies of cell cycle length were approved by the IACUC of the Cleveland State University. Recall that the proliferating cells of the small intestine are located near the basement membrane in regions termed the crypt. Cells in this region are the only cells that proliferate in the gut, with the exception of rare proliferation of support cells in the matrix of the villi. Epithelial cells in the crypt region are essentially all proliferating all the time. Consequently, they are actively labeled by a pulse of EDU to label cells in S phase. Cells not labeled with EDU are in G2-G1 phases, and are labeled with cyclin D1 (FIG. 6).
Finally, the tissue was analyzed a full 10 hours following the final topotecan injection.
As a control to the above studies, the tissues described above were stained for the expression of cyclin D1. […] Thus, upon entry into S phase the level of cyclin D1 is always reduced to near zero. It returns to high levels of expression upon entry into G2 phase, but only in cells that are actively proliferating. Therefore, an actively proliferating cell would incorporate EDU if it were in S phase, and it would express cyclin D1 if it were in any other cell cycle phase. If all the cells of a tissue either incorporate EDU or express high cyclin D1 levels, all the cells of the tissue are actively proliferating. […] Further analysis was performed at 2 hour intervals from 0 hours to 10 hours following the final topotecan injection.
Separate animals received injections of 0.20 ml of topotecan at 0.33 mg/ml, 0.20 mg/ml, or 0.12 ml of 0.20 mg/ml topotecan. Each animal was given four 10-hour injections of a given concentration, separated by 40 hours without injection; repeated four times. At 5 hours following the final topotecan injection, BRDU was injected into the animals to identify cells in S phase between the timed topotecan injection. Animals injected with BRDU were then injected again 5 hours later with EDU (10 hours after the final topotecan injection), to identify cells in S phase at the time the next successive topotecan injection would have taken place. 50 min following the EDU injection tissues were collected and analyzed.

[5] = test system: NIH3T3; assay: Cell cycle specific toxicity in NIH3T3 cultures (clonal survival after brief drug treatment); assay type: cell-based
Protocol: The examples were performed on the contact inhibited cell line, NIH3T3. […] They must be cultured so as to never reach confluence; since, like normal cells, they stop growing when becoming confluent on the culture plate. Thus, they are plated at 60,000 to 150,000 cells per 35 mm plate, and transferred to a new plate every 2-3 days. The cells must also be limited in passage number to ensure their growth rate is rapid. The definition of low passage cells will vary from one lab to another, and the actual cell cycle length of these cells may vary, but it is critical that from one experiment to another the length of the cell cycle remains constant.
Constant killing over a broad concentration range: The drug to be tested is diluted across a broad concentration range, and placed on separate actively proliferating NIH3T3 cultures for two hours. […] The plates are then fixed, stained with crystal violet, and the number of colonies counted and compared to a mock treated culture. […] Cloning of the cells following drug treatment allows a quantitative determination of the number of surviving cells.
Serum stimulated growth: NIH3T3 cells stop growing and enter quiescence when serum is reduced in the medium to 0.3%, so long as they are at a sufficient density on the plate. […] The drug to be analyzed is added for 3 hours at various times following serum addition, and then washed off. […]

[6] = test system: DNA synthesis; assay: Rate of DNA synthesis after topotecan (observation of the inventor)
Description: Topotecan treatments would be removed and followed at various times thereafter with an BRDU treatment.

[7] = remark: listed apart in the source
Protocol: Analyses began with approximately 10% of the LD50 concentration. It was then escalated until overall toxicity to the animals was observed. The final concentration of topotecan injected was 0.33 mg/ml-0.2 mg/ml; 0.05-0.27 ml per injection (depending on the mouse strain and weight of the mouse). Following determination of general topotecan toxicity following multiple injections, it was necessary to determine if, as predicted, injections spaced apart by the length of the cell cycle would be less harmful to the animals.
[…] […] […] Thus, 9 injections at 8 hours, or 9 injections at 12 hours, 14 hours, 16 hours or 20 hours were performed, and the effect of these upon the animals determined. The 8 hour time was selected to definitely be shorter than the cell cycle, and 20 hours to be longer than the cell cycle, so that negative controls would be built into the protocol.

[8] = test system: Lewis lung carcinoma tumors; assay: Cell cycle synchrony of Lewis lung carcinoma tumor cells (EDU labeling); assay type: in vivo, mouse; conditions: 9 injections separated by 10 hours, tumor-bearing C57Black mice
Protocol: All studies of tumor killing were performed exactly as described above for studies of cell cycle synchrony. Thus, 9 injections of topotecan were separated from one another by 10 hours in C57Black mice carrying a tumor of approximately 0.5 gm. EDU was injected into three different topotecan treated animals at 1 hour, 5 hour or 10 hours as a marker for DNA synthesis. A control tumor-bearing mouse received mock injections and was injected with EDU 5 hours after the final injection. […] together with normal gut tissue was collected and analyzed.

[9] = injections every 24 hours for up to 20 days

Which “time after injection within which replicating cells are labelled (rapid removal from circulation)” value [1] does the source give for `O=c1[nH]c(=O)n([C@H]2C[C@H](O)[C@@H](CO)O2)cc1Br` [BRDU, Bromodeoxyuridine] here?
The value was at most 1 h.

For `C#Cc1cn([C@H]2C[C@H](O)[C@@H](CO)O2)c(=O)[nH]c1=O` [EDU, 5-Ethynyl-2′-deoxyuridine], which toxicity to animals ([2]; EDU injections) is on record?
The toxicity to animals was “not highly toxic to animals”.

What about the “inhibition of Lewis lung carcinoma tumor growth” value [3] of the same compound?
The value was “reduction in tumor growth; also recorded: highly efficient in blocking tumor growth”.

And the “ability to induce cell cycle synchrony in the mouse gut” value [4]?
Its value is “shown to induce cell cycle synchrony”.

For `COc1cc([C@@H]2c3cc4c(cc3[C@@H](O[C@@H]3O[C@@H]5CO[C@@H](C)O[C@H]5[C@H](O)[C@H]3O)[C@H]3COC(=O)[C@H]23)OCO4)cc(OC)c1O` [Etoposide], which “width of concentration range selectively toxic for S phase cells” value [5] is on record?
Its value is 10 fold.

For `N.N.[Cl][Pt][Cl]` [cisplatin], which “delay of tumor formation” value ([3]; daily injections) is on record?
Its value is “less than 3 days”.

What about the “cell cycle synchrony of injected animals' cells” value ([4]; repeated injections, any time between injections) of the same compound?
The value was “at no time were the cisplatin injected cells synchronous”.

With `CC[C@@]1(O)C(=O)OCc2c1cc1n(c2=O)Cc2cc3c(CN(C)C)c(O)ccc3nc2-1` [topotecan] as the compound, how does the “injection spacing best tolerated” value ([2]; 9 injections, spacings 9 h 30 min to 11 h 20 min, weight over next 10 days, C57Bl/6 mice) read?
Its value is 10 hours 40 minutes.

What about the “percent weight loss, injections separated by cell cycle length compared to daily injections” value ([2]; mouse, in vivo) of the same compound?
The value was “dramatically reduced”.

And the “toxicity on continued injections” value ([2]; mouse, in vivo)?
Its value is “without developing significant toxicity”.

What about the “inhibition of tumor appearance, longer than in untreated animals” value ([3]; Cell Cycle Therapy with injections every 10 hours 40 minutes and rest periods) of the same compound?
The value was 7 to 12 days.

What about the “inhibition of Lewis lung carcinoma tumor growth” value [3] of the same compound?
Its value is “dramatically inhibited; also recorded: highly efficient in blocking tumor growth”.

What about the “tumor growth compared to the control group” value ([3]; FIG. 14B, both topotecan treatments (Cell Cycle and Daily)) of the same compound?
Its value is “dramatic decreases in tumor growth”.

And the “reduction of tumor size” value ([3]; Lewis lung carcinoma, any treatment protocol tested)?
The value was “never been found in these studies to reduce tumor size”.

And the “average tumor size relative to PBS treated animals” value ([3]; either protocol (Cell Cycle or daily), 9.5 days)?
Its value is “¼”.

What about the tumor killing [3, 9] of the same compound?
The tumor killing was “tumor killing was enhanced”.

And the “effect on rate of DNA synthesis” value [6]?
Its value is “dramatically reduces the rate of DNA synthesis”.

What about the “cell cycle synchrony of gut epithelial cells” value ([4]; 9 injections every 10 hours) of the same compound?
Its value is “complete cell cycle synchrony”.

And the “cell cycle phase / EDU incorporation of crypt cells” value ([4]; 9 injections every 10 hours, 4 to 8 hours following the final injection)?
Its value is “in S phase; also recorded: high levels of EDU incorporation”.

What about the “cell cycle phase / EDU incorporation of crypt cells” value ([4]; 9 injections every 10 hours, 2 hours and 10 hours following the final injection) of the same compound?
Its value is “low levels of EDU incorporation; also recorded: not synthesizing DNA”.

And the “cyclin D1 expression in crypt cells” value ([4]; 9 injections every 10 hours, 5 hours after the final injection)?
The value was “greatly reduced proportion of the cells”.

What about the “gut cells in S phase (EDU incorporation)” value ([4]; 9 injections every 10 hours, 5 hours following the final injection) of the same compound?
The value was “essentially all the cells were in S phase; also recorded: efficiently labeled with EDU”.

And the “gut cells in S phase (EDU incorporation)” value ([4]; 9 injections every 10 hours, 10 hours following the final injection)?
The value was “none of the cells were in S phase; also recorded: very little EDU labeling”.

And the “cyclin D1 expression in crypt cells” value ([4]; 9 injections every 10 hours, immediately after or 10 hours following the final injection)?
The value was “expressed at high levels”.

What about the “gut cells in S phase (EDU incorporation)” value ([4]; 9 injections every 10 hours, immediately following the final injection) of the same compound?
The value was “no cells were in S phase”.

And the “gut morphology, EDU incorporation and synchrony of crypt cells” value ([4]; 9 injections separated by 9 hours)?
The value was “unhealthy gut morphology and few gut cells able to incorporate EDU; also recorded: no evidence of cell cycle synchrony”.

What about the “cell cycle synchrony of normal gut cells in tumor-bearing animals” value ([4]; 9 injections separated by 10 hours, C57Black mice with Lewis lung carcinoma) of the same compound?
Its value is “induced cell cycle synchrony; also recorded: have been synchronized”.

What about the “synchronization of gut tissues” value ([4]; 9 injections separated by times other than every 10 hours) of the same compound?
Its value is “In no case were the tissues synchronized”.

And the “ability to induce cell cycle synchrony in the mouse gut” value [4]?
Its value is “shown to induce cell cycle synchrony”.

And the “cell cycle synchrony of gut cells” value ([4]; 0.20 ml of 0.33 mg/ml or 0.20 mg/ml)?
Its value is “almost complete”.

And the “cell cycle synchrony of gut cells” value ([4]; injected concentration 0.12 mg/ml)?
The value was “very little if any synchrony”.

What about the “cell cycle synchrony of the gut” value [4, 9] of the same compound?
Its value is “cell cycle synchrony of the gut was observed”.

And the “crypt cell division interval” value [4, 9]?
Its value is 12 h.

And the “toxicity to gut tissue” value ([4]; mouse, in vivo)?
The value was “Even greater toxicity”.

What about the “total amount of drug tolerated by the animals” value ([7]; 4 injections every 10 hours separated by 40 hours without injection) of the same compound?
The value was “increased”.

What about the “ability of animals to survive repeated injections” value ([7]; 9 injections at 8, 12, 14, 16 or 20 hours between injections) of the same compound?
The value was “had to be euthanized”.

And the “cell cycle synchrony of tumor cells (EDU labeling at 1, 5, 10 hours)” value [8]?
The value was “had not been synchronized”.

From patent US20240335433A1, “CELL CYCLE SYNCHRONIZATION PROCESS” (priority 2023, published 2024)
